Source: PubChem BioAssay (NCI)
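These data come from cells grown in 96-well plates and exposed to compound for 48 hours at five concentrations. At the GI50, growth is halved. The concentration for full growth arrest is given as TGI.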

Columns and labels:
Assay in all cases: inhibition of tumour cell growth, NCI panel, 48 h
[1] = tested on: UO-31 renal
[2] = tested on: SR leukemia
[3] = tested on: A498 renal
[4] = tested on: EKVX NSCLC
[5] = tested on: NCI-H460 lung
[6] = tested on: SK-OV-3 ovarian
[7] = tested on: HCT-116 colon
[8] = tested on: SW-620 colon
[9] = tested on: PC-3 prostate
[10] = tested on: BT-549 breast
[11] = tested on: TK-10 renal
[12] = tested on: SNB-19 CNS
[13] = tested on: RPMI-8226 leukemia
[14] = tested on: OVCAR-3 ovarian
[15] = tested on: MDA-MB-231 breast
[16] = tested on: COLO 205 colon
[17] = tested on: MDA-MB-468 breast
[18] = tested on: LOX IMVI melanoma
[19] = tested on: KM12 colon
[20] = tested on: RXF 393 renal
[21] = tested on: HCC-2998 colon
[22] = tested on: NCI-H522 lung
[23] = tested on: SK-MEL-28 melanoma
[24] = tested on: SF-268 CNS
[25] = tested on: M14 melanoma
[26] = tested on: HCT-15 colon
[27] = tested on: OVCAR-4 ovarian
[28] = tested on: SF-539 CNS
[29] = tested on: UACC-62 melanoma

## Cc1ccc(C(SCCNCc2cc(N(C)C)ccn2)(c2ccccc2)c2ccccc2)cc1
[1]
  GI50: 2.96 µM
  TGI: 16.2 µM
[2]
  GI50: 1.34 µM
  TGI: 9.42 µM
[3]
  GI50: 13.4 µM
  TGI: 27 µM
[4]
  GI50: 1.49 µM
  TGI: 3.9 µM
[5]
  GI50: 3.02 µM
  TGI: 9.9 µM
[6]
  GI50: 3.84 µM
  TGI: 14.4 µM
[7]
  GI50: 1.23 µM
  TGI: 5.22 µM
[8]
  GI50: 2.52 µM
  TGI: 11.4 µM
[9]
  GI50: 2.63 µM
  TGI: 11.9 µM
[10]
  GI50: 2.94 µM
  TGI: 7.87 µM
[11]
  GI50: 4.68 µM
  TGI: 17.3 µM
[12]
  GI50: 4.42 µM
  TGI: 16.3 µM
[13]
  GI50: 2.08 µM
  TGI: 5.48 µM
[14]
  GI50: 2.65 µM
  TGI: 10.3 µM
[15]
  GI50: 2.35 µM
  TGI: 6.33 µM
[16]
  GI50: 1.7 µM
  TGI: 3.17 µM
[17]
  GI50: 2.35 µM
  TGI: 6.87 µM
[18]
  GI50: 1.42 µM
  TGI: 2.77 µM
[19]
  GI50: 3.34 µM
  TGI: 12 µM
[20]
  GI50: 3.03 µM
  TGI: 12.5 µM
[21]
  GI50: 1.42 µM
  TGI: 2.75 µM
[22]
  GI50: 2.34 µM
  TGI: 6.63 µM
[23]
  GI50: 5.56 µM
  TGI: 17.8 µM
[24]
  GI50: 4.46 µM
  TGI: 18.7 µM
[25]
  GI50: 1.55 µM
  TGI: 3.5 µM
[26]
  GI50: 0.496 µM
  TGI: 1.76 µM
[27]
  GI50: 4.4 µM
  TGI: 20.3 µM
[28]
  GI50: 2.2 µM
  TGI: 4.89 µM
[29]
  GI50: 9.9 µM
